Source: ChEMBL document CHEMBL2074513, “Role of blood-brain barrier P-glycoprotein in limiting brain accumulation and sedative side-effects of asimadoline, a peripherally acting analgaesic drug” (Br J Pharmacol, 1999)

How the values were obtained:
[1] = target: ATP-dependent translocase ABCB1 (Homo sapiens, UniProt P08183); test: TP_TRANSPORTER: transepithelial transport (basal to apical) in MDR1-expressing LLC-PK1 cells; format: functional, cell-based; conditions: pig
[2] = target: ATP-dependent translocase ABCB1 (Mus musculus, UniProt P21447); test: TP_TRANSPORTER: transepithelial transport (basal to apical) in mdr1a-expressing LLC-PK1 cell; format: functional, cell-based; conditions: pig
ATP-dependent translocase ABCB1 (Mus musculus, UniProt P21447), sequence (P21447 whole entry): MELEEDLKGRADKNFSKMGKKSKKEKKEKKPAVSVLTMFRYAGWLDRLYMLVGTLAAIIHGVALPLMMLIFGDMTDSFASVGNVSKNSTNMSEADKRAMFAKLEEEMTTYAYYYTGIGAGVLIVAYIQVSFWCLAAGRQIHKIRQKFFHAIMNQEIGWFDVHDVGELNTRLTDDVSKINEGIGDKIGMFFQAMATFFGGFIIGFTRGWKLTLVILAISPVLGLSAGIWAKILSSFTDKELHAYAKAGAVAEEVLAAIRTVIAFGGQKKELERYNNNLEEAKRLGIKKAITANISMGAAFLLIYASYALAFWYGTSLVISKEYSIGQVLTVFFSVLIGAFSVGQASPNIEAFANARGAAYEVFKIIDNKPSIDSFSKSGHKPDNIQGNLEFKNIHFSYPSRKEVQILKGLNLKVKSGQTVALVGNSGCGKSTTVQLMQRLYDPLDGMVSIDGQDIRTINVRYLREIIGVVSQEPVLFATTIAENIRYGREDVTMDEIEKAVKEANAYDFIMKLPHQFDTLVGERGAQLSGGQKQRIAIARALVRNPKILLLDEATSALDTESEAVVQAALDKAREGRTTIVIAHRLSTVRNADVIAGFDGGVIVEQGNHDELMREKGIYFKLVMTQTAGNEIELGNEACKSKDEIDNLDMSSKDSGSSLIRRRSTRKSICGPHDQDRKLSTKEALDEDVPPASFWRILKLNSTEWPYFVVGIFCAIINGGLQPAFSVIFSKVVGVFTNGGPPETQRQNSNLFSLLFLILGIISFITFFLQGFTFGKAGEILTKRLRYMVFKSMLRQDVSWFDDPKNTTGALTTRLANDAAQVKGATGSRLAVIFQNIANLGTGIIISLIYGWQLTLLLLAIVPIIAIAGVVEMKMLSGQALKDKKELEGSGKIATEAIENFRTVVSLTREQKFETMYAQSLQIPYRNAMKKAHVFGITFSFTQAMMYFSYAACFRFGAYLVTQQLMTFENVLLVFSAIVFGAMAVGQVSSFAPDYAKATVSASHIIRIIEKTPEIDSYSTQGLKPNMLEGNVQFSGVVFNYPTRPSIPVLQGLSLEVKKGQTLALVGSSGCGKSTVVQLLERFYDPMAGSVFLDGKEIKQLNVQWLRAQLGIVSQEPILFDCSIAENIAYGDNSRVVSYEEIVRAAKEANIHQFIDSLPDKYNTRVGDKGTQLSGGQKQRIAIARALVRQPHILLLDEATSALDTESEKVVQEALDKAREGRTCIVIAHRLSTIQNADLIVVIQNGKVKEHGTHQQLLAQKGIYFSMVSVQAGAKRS

[3] = target: P-glycoprotein 1 and 3 (MDR1a/MDR1b) (Mus musculus, UniProt P21447+P06795); test: TP_TRANSPORTER: increase in brain concentration in mdr1a/1b(-/-) mouse; format: functional, organism-based; conditions: in vivo

Measured: Activity

ATP-dependent translocase ABCB1 (Homo sapiens, UniProt P08183), sequence (P08183 whole entry): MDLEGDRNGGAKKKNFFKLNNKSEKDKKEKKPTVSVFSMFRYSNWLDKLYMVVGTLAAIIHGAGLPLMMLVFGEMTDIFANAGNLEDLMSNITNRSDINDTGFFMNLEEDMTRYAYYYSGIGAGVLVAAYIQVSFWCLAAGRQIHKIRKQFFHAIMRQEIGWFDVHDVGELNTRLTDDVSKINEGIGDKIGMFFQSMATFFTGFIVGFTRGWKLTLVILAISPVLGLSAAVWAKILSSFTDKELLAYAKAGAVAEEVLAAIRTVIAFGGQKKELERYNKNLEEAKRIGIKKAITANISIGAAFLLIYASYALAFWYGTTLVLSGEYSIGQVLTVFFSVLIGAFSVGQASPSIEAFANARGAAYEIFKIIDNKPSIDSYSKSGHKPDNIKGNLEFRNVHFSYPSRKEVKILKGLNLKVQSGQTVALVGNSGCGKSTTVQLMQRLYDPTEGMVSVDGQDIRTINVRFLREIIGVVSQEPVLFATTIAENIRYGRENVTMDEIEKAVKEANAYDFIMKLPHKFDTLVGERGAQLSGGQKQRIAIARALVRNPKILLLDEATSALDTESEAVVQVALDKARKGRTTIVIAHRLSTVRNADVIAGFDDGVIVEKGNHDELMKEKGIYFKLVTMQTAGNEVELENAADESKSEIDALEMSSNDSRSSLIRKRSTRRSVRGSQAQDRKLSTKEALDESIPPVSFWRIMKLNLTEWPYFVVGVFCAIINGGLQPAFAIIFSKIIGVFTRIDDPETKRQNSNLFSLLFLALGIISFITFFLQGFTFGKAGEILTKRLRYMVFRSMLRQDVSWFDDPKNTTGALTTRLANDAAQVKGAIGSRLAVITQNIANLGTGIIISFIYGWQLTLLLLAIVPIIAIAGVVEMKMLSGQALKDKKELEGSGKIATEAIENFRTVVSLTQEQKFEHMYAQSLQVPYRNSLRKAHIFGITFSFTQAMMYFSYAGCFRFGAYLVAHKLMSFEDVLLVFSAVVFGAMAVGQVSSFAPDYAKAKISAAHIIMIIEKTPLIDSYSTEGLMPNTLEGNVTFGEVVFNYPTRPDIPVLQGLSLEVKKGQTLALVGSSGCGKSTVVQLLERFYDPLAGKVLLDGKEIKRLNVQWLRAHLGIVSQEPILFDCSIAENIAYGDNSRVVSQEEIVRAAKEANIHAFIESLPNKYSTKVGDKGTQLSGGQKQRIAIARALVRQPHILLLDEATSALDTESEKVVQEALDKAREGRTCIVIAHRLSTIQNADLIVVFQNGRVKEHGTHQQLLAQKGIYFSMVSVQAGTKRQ

CN(C(=O)C(c1ccccc1)c1ccccc1)[C@H](CN1CC[C@H](O)C1)c1ccccc1 [ASIMADOLINE]
substrate [+]: all assays above
